The results in this text go back to patent publication US20060154954A1, “Combinations and use of selected pharmaceutically active compounds” (ALTANA PHARMA AG, priority 2003, published 2006).

In the assay the test system is gastric lesion. The assay can be described thus: Gastric lesions after pylorus ligation and oral acetylsalicylic acid in the rat (Shay rat, modified by Okabe). Conditions: 4 hours after pylorus ligation and oral 100 mg/kg acetylsalicylic acid. It is filed as in vivo.
Setting [1] is: 1.0 μmol/kg intraduodenally, read-out: Reduction of lesion index versus control in %.

On to `COCCO[C@@H]1c2ccn3c(C)c(C)nc3c2N[C@H](c2ccccc2)[C@H]1OC(=O)OC` [Example 9, (7R,8R,9R)-8-methoxycarbonyloxy-7-(2-methoxyethoxy)-2,3-dimethyl-9-phenyl-7,8,9,10-tetrahydroimidazo[1,2-h][1,7]naphthyridine], for which the inhibition in vivo at 1 µmol/kg under setting [1] was found to be 100%.
The same measure, in the same setting: the same measure for `COCCO[C@@H]1c2ccn3c(C)c(C)nc3c2N[C@H](c2ccccc2)[C@H]1OC(C)=O` [Example 7, (7R,8R,9R)-8-acetoxy-7-(2-methoxyethoxy)-2,3-dimethyl-9-phenyl-7,8,9,10-tetrahydroimidazo[1,2-h][1,7]naphthyridine]: 100%.
As to `COCCO[C@@H]1c2ccn3c(C)c(C)nc3c2O[C@H](c2ccccc2)[C@@H]1O` [Example 13, (7R,8R,9R)-2,3-dimethyl-8-hydroxy-7-(2-methoxyethoxy)-9-phenyl-7H-8,9-dihydropyrano[2,3-c]imidazo[1,2-a]pyridine], where the note is “1.0 μmol/kg intraduodenally”, the “Reduction of lesion index versus control in %” value is reported as 100%.
Turning to `CO[C@@H]1c2ccn3c(C)c(C)nc3c2N[C@H](c2ccccc2)[C@H]1O` [Example 2, (7R, 8R, 9R)-2,3-dimethyl-8-hydroxy-7-methoxy-9-phenyl-7,8,9,10-tetrahydroimidazo[1,2-h][1,7]naphthyridine], under setting [1], the inhibition in vivo at 1 µmol/kg was determined as 100%.
The same measure, in the same setting: the same measure for `Cc1nc2c3c(ccn2c1C)[C@@](C)(O)[C@H](O)[C@@H](c1ccccc1)N3` [Example 12, (7R,8R,9R)-2,3,7-trimethyl-7,8-dihydroxy-9-phenyl-7,8,9,10-tetrahydroimidazo[1,2-h][1,7]naphthyridine]: 100%.
Turning to `COCCO[C@@H]1c2ccn3c(C)c(C)nc3c2N[C@H](c2ccccc2)[C@H]1O` [Example 1, (7R,8R,9R)-8-hydroxy-7-(2-methoxyethoxy)-2,3-dimethyl-9-phenyl-7,8,9,10-tetrahydro-imi-dazo[1,2-h][1,7]naphthyridine], the “Reduction of lesion index versus control in %” value (3.0 μmol/kg intraduodenally) stood at 100%.
As to `CO[C@H]1c2ccn3c(C)c(C)nc3c2N[C@H](c2ccccc2)[C@H]1O` [Example 3, (7S, 8R, 9R)-2,3-dimethyl-8-hydroxy-7-methoxy-9-phenyl-7,8,9,10-tetrahydroimidazo[1,2-h][1,7]naphthyridine], the inhibition in vivo at 10 µmol/kg (10.0 μmol/kg intraduodenally, read-out: Reduction of lesion index versus control in %) amounted to 100%.
For `COCCO[C@@H]1c2ccn3c(Cl)c(C)nc3c2N[C@H](c2ccccc2)[C@H]1O` [Example 16, (7R,8R,9R)-3-chloro-8-hydroxy-7-(2-methoxyethoxy)-2-methyl-9-phenyl-7.8.9.10-tetrahydroimidazo[1.2-h][1.7]naphthyridine], the “Reduction of lesion index versus control in %” value (6.0 μmol/kg intraduodenally) is 100%.
Regarding `Cc1nc2c3c(ccn2c1C)[C@@H](O)[C@@](C)(O)[C@@H](c1ccccc1)N3` [Example 11, (7R,8S,9R)-2,3,8-trimethyl-7,8-dihydroxy-9-phenyl-7,8,9,10-tetrahydroimidazo[1,2-h][1,7]naphthyridine], the inhibition in vivo at 1 µmol/kg under setting [1] was determined as 100%.
Same read-out and setting: the same measure for `COCCO[C@@H]1c2ccn3c(C)c(C)nc3c2N[C@H](c2ccccc2)[C@H]1O` [Example 6, (7R, 8R, 9R)-2,3-dimethyl-8-hydroxy-7-(2-methoxyethoxy)-9-phenyl-7,8,9,10-tetrahydroimidazo[1,2-h][1,7]naphthyridine]: 100%; for `COCCO[C@@H]1c2ccn3c(C)c(C)nc3c2N[C@H](c2ccccc2)[C@H]1OC(=O)c1ccccc1` [Example 8, (7R,8R,9R)-8-benzoyloxy-7-(2-methoxyethoxy)-2,3-dimethyl-9-phenyl-7,8,9,10-tetrahydroimidazo[1,2-h][1,7]naphthyridine]: 100%.
`COCCO[C@@H]1c2ccn3c(Cl)c(C)nc3c2O[C@H](c2ccccc2)[C@@H]1O` [Example 17, (7R,8R,9R)-3-chloro-8-hydroxy-7-(2-methoxyethoxy)-2-methyl-9-phenyl-7H-8,9-dihydro-pyrano[2,3-c]imidazo[1,2-a]pyridine]: the “Reduction of lesion index versus control in %” value (1.0 μmol/kg intraduodenally) was 100%.
For the compound `CCO[C@@H]1c2ccn3c(C)c(C)nc3c2N[C@H](c2ccccc2)[C@H]1O` [Example 4, (7R, 8R, 9R)-2,3-dimethyl-7-ethoxy-8-hydroxy-9-phenyl-7,8,9,10-tetrahydroimidazo[1,2-h][1,7]naphthyridine], under setting [1], the inhibition in vivo at 1 µmol/kg was 100%.
With `CCO[C@@H]1c2ccn3c(C)c(C)nc3c2O[C@H](c2ccccc2)[C@@H]1O` [Example 14, (7R,8R,9R)-2,3-dimethyl-8-hydroxy-7-ethoxy-9-phenyl-7H-8,9-dihydropyrano[2,3-c]imidazo[1,2-a]pyridine], where the note is “1.0 μmol/kg intraduodenally”, the “Reduction of lesion index versus control in %” value is 100%.
Turning to `COCCO[C@@H]1c2ccn3cc(C)nc3c2N[C@H](c2ccccc2)[C@H]1O` [Example 15, (7R,8R,9R)-8-hydroxy-2-methyl-7-(2-methoxyethoxy)-9-phenyl-7,8,9,10-tetrahydroimidazo[1,2-h][1,7]naphthyridine], for the setting “6.0 μmol/kg intraduodenally, read-out: Reduction of lesion index versus control in %”, the inhibition in vivo at 6 µmol/kg stood at 100%.
Turning to `COCCO[C@@H]1c2ccn3c(C)c(C)nc3c2N[C@H](c2ccccc2)[C@H]1OC(=O)CN(C)C` [Example 10, (7R,8R,9R)-7-(2-methoxyethoxy)-2,3-dimethyl-8-(N,N-dimethylaminomethylcarbonyloxy)-9-phenyl-7,8,9,10-tetrahydroimidazo[1,2-h][1,7]naphthyridine], the inhibition in vivo at 1 µmol/kg under setting [1] worked out at 100%.
On the same count and under the same terms, the result for `CCO[C@H]1c2ccn3c(C)c(C)nc3c2N[C@H](c2ccccc2)[C@H]1O` [Example 5, (7S, 8R, 9R)-2,3-dimethyl-7-ethoxy-8-hydroxy-9-phenyl-7,8,9,10-tetrahydroimidazo[1,2-h][1,7]naphthyridine] reads 100%.
